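The compound was tested at five concentrations on cells cultured in 96-well plates, with a 48-hour exposure period. GI50 marks 50% less growth.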 Active and inactive are the calls of the source. Cut-off read from the data, not from the text of the source: active = GI50 up to about 1.1 µM and inactive = higher.
What was measured:
Assay in all cases: NCI tumour cell line growth inhibition, 48 h
[1] = system: A549
[2] = system: SK-MEL-5
[3] = system: RPMI-8226
[4] = system: CAKI-1
[5] = system: UACC-257
[6] = system: SK-MEL-2
[7] = system: HOP-62
[8] = system: SNB-19
[9] = system: HCC 2998
[10] = system: NCI-H460
[11] = system: UO-31
[12] = system: OVCAR-5
[13] = system: LOX IMVI
[14] = system: HCT-116
[15] = system: OVCAR-4
[16] = system: NCI-H226

Measured: GI50

CC(=O)NNc1nc(C)c(C(=O)/C=C/c2ccc(Cl)c(Cl)c2)s1
inactive: [1] > 100 µM | [2] > 100 µM | [3] > 100 µM | [4] > 100 µM | [5] > 100 µM | [6] > 100 µM | [7] > 100 µM | [8] > 100 µM | [9] > 100 µM | [10] > 100 µM | [11] > 100 µM | [12] > 100 µM | [13] > 100 µM

O=C(Nc1ccc(Cl)cc1)/C(Cc1cccc[n+]1[O-])=N\Nc1ccc([N+](=O)[O-])cc1[N+](=O)[O-]
inactive: [1] > 100 µM | [2] > 100 µM | [3] > 100 µM | [4] > 100 µM | [5] > 100 µM | [6] > 100 µM | [7] > 100 µM | [14] > 100 µM | [8] > 100 µM | [9] > 100 µM | [10] > 100 µM | [11] > 100 µM | [15] > 100 µM | [12] > 100 µM | [13] > 100 µM

COC(=O)/C(=C/c1ccc(OC)cc1)C(C(=O)O)=C1CCCCC1
inactive: [1] > 100 µM | [2] > 100 µM | [3] > 100 µM | [4] > 100 µM | [5] > 100 µM | [6] > 100 µM | [7] > 100 µM | [14] > 100 µM | [8] > 100 µM | [10] > 100 µM | [11] > 100 µM | [15] > 100 µM | [12] > 100 µM | [16] > 100 µM | [13] > 100 µM

CC(=O)OC(C)(C)C1CCC(C)(C(O)COc2ccc(CCNC(=O)c3ccccc3)cc2)O1 (configuration not stated)
inactive: [1] 51.1 µM | [2] 11.6 µM | [3] 20.7 µM | [4] > 100 µM | [5] > 100 µM | [6] > 100 µM | [7] 43.2 µM | [14] 28.8 µM | [8] > 100 µM | [10] 61.8 µM | [11] 33.7 µM | [15] 63.2 µM | [12] > 100 µM | [13] 31.4 µM

C=CC1=C(C)/C(=C/C2=NC(=C\c3[nH]c(CC4NC(=O)C(C)/C4=C\C)c(C)c3CCC(=O)O)/C(CC(=O)O)=C2C)NC1=O (configuration not stated)
inactive: [1] > 100 µM | [4] > 100 µM | [5] > 100 µM | [6] > 100 µM | [7] > 100 µM | [14] > 100 µM | [8] > 100 µM | [9] > 100 µM | [10] > 100 µM | [11] > 100 µM | [15] > 100 µM | [12] > 100 µM | [16] > 100 µM | [13] > 100 µM

CC(=O)OCC1OC(Sc2ccccn2)C=CC1OC(C)=O (configuration not stated)
inactive: [1] > 100 µM | [2] > 100 µM | [5] > 100 µM | [7] > 100 µM | [14] > 100 µM | [8] > 100 µM | [9] > 100 µM | [11] > 100 µM | [15] > 100 µM | [12] > 100 µM | [16] > 100 µM | [13] > 100 µM

Cc1cc2c(c(C(N)=O)c1C)-c1cccc(Cl)c1C2=O
inactive: [1] > 100 µM | [2] > 100 µM | [3] > 100 µM | [5] > 100 µM | [6] > 100 µM | [7] > 100 µM | [14] > 100 µM | [8] 64.1 µM | [9] > 100 µM | [10] > 100 µM | [11] 41.6 µM | [15] > 100 µM | [12] > 100 µM | [13] > 100 µM

COc1ccc(OCC(=O)O)c2c1CCC(C)C2=O (configuration not stated)
inactive: [1] > 100 µM | [2] > 100 µM | [3] > 100 µM | [4] > 100 µM | [5] > 100 µM | [6] > 100 µM | [7] > 100 µM | [14] > 100 µM | [8] > 100 µM | [9] > 100 µM | [10] > 100 µM | [11] > 100 µM | [15] > 100 µM | [12] > 100 µM | [13] > 100 µM

CN1C(c2ccccc2)CC(O)CC1c1ccccc1 (configuration not stated)
inactive: [1] > 100 µM | [2] > 100 µM | [3] > 100 µM | [4] > 100 µM | [5] > 100 µM | [6] > 100 µM | [7] > 100 µM | [14] > 100 µM | [8] > 100 µM | [10] > 100 µM | [11] > 100 µM | [15] > 100 µM | [12] > 100 µM | [16] > 100 µM | [13] > 100 µM

O=c1ccccc2cccc(O)c12
inactive: [1] > 100 µM | [2] > 100 µM | [3] > 100 µM | [4] > 100 µM | [5] > 100 µM | [7] > 100 µM | [14] > 100 µM | [8] > 100 µM | [9] > 100 µM | [10] > 100 µM | [15] > 100 µM | [13] > 100 µM

COC(=O)[C@]12CSCN1C(=O)C(C(C)=O)=NN2C(=O)[C@](OC)(c1ccccc1)C(F)(F)F
inactive: [1] > 100 µM | [2] > 100 µM | [3] > 100 µM | [6] > 100 µM | [7] > 100 µM | [14] > 100 µM | [8] > 100 µM | [10] > 100 µM | [11] > 100 µM | [15] > 100 µM | [12] > 100 µM | [16] 88.9 µM | [13] > 100 µM

Brc1ccc(N2C[N+](c3ccc(Br)cc3)=NC(c3ccccc3)=N2)cc1.[O-][Cl+3]([O-])([O-])[O-]
inactive: [1] 75.9 µM | [2] 76.4 µM | [3] 49.9 µM | [4] > 100 µM | [5] > 100 µM | [6] 46.6 µM | [7] 74.1 µM | [14] 49.2 µM | [8] > 100 µM | [9] > 100 µM | [10] > 100 µM | [11] > 100 µM | [15] > 100 µM | [12] > 100 µM | [16] > 100 µM

CCOC(=O)C(=O)Nc1c(N(CC)CC)n2ccccc2nc1=O
inactive: [1] > 100 µM | [2] > 100 µM | [3] > 100 µM | [4] > 100 µM | [6] > 100 µM | [7] > 100 µM | [14] > 100 µM | [8] > 100 µM | [10] > 100 µM | [11] > 100 µM | [12] > 100 µM | [16] > 100 µM

Cc1c(-c2nnc(-c3ccccc3)o2)c(=O)n(-c2ccccc2)n1C
inactive: [1] > 100 µM | [3] > 100 µM | [5] > 100 µM | [6] > 100 µM | [7] > 100 µM | [14] > 100 µM | [8] > 100 µM | [9] > 100 µM | [10] > 100 µM | [11] > 100 µM | [15] > 100 µM | [16] > 100 µM | [13] > 100 µM
